Assay results published in patent US11583556B2, “Modified cells and methods of therapy” (Regents of the University of Minnesota, priority 2015, dated 2023).

Key:
Assay type in all cases: cell-based, human
AAVS1 = assay: Validation of gRNAs in HEK293T cells, Surveyor digest and densitometry, AAVS1 site; settings: AAVS1 target gene site, 3 days
Method: (§1) HEK293T cells were plated out at a density of 1×10^5 cells per well in a 24 well plate. 150 uL of Opti-MEM medium was combined with 1.5 ug of gRNA plasmid, 1.5 ug of Cas9 plasmid. Another 150 uL of Opti-MEM medium was combined with 5 ul of Lipofectamine 2000 Transfection reagent (Invitrogen). The solutions were combined together and incubated for 15 minutes at room temperature. The DNA-lipid complex was added dropwise to wells of the 24 well plate. Cells were incubated for 3 days at 37° C. and genomic DNA was collected using the GeneJET Genomic DNA Purification Kit (Thermo Scientific). Activity of the gRNAs was quantified by a Surveyor Digest, gel electrophoresis, and densitometry (FIG. 60 and FIG. 61) (Guschin, D. Y., et al., “A Rapid and General Assay for Monitoring Endogenous Gene Modification,” Methods in Molecular Biology, 649: 247-256 (2010)).
(§2) The percentage numbers in Table 7 indicated the percent of gene modifications in the sample.

PD1 = assay: Validation of gRNAs in HEK293T cells, Surveyor digest and densitometry, PD1 site; settings: PD1 target gene site, 3 days
Method: as §1, §2

CCR5 = assay: Validation of gRNAs in HEK293T cells, Surveyor digest and densitometry, CCR5 site; settings: CCR5 target gene site, 3 days
Method: as §1
(§3) The efficiencies of Cas9 in creating double strand break (DSB) with the assistance of different gRNA sequences were listed in Table 7. The percentage numbers in Table 7 indicated the percent of gene modifications in the sample.

HPRT = assay: Validation of gRNAs in HEK293T cells, Surveyor digest and densitometry, HPRT site; settings: HPRT target gene site, 3 days
Method: as §1, §3

CTLA4 = assay: Validation of gRNAs in HEK293T cells, Surveyor digest and densitometry, CTLA4 site; settings: CTLA4 target gene site, 3 days
Method: as §1, §3

**Q.** How did the “efficiency of Cas9/gRNA pair in creating double strand break (percent of gene modifications)” value (AAVS1) turn out when “AAVS1 gRNA#2: guide RNA to AAVS1; sense oligo SEQ ID 21 CACCGACCCCACAGTGGGGCCACTA” was run?
**A.** 27.10%

**Q.** “PD1 gRNA#2: guide RNA to PD-1; sense oligo SEQ ID 35 CACCGCCTGCTCGTGGTGACCGAAG” was tested. Which “efficiency of Cas9/gRNA pair in creating double strand break (percent of gene modifications)” value (PD1) did it give?
**A.** >60%

**Q.** “CCR5 gRNA#1: guide RNA to CCR5; sense oligo SEQ ID 61 CACCGACAATGTGTCAACTCTTGAC” was tested. Which “efficiency of Cas9/gRNA pair in creating double strand break (percent of gene modifications)” value (CCR5) did it give?
**A.** 21.47%

**Q.** “HPRT gRNA#5: guide RNA to HPRT; sense oligo SEQ ID 13 CACCGTGTTTCAATGAGAGCATTAC” was tested. Which “efficiency of Cas9/gRNA pair in creating double strand break (percent of gene modifications)” value (HPRT) did it give?
**A.** <1%

**Q.** “HPRT gRNA#1: guide RNA to HPRT; sense oligo SEQ ID 5 CACCGCACGTGTGAACCAACCCGCC” was tested. Which “efficiency of Cas9/gRNA pair in creating double strand break (percent of gene modifications)” value (HPRT) did it give?
**A.** 27.85% ^

**Q.** “AAVS1 gRNA#6: guide RNA to AAVS1; sense oligo SEQ ID 29 CACCGCGGGCCCCTATGTCCACTTC” was tested. Which “efficiency of Cas9/gRNA pair in creating double strand break (percent of gene modifications)” value (AAVS1) did it give?
**A.** 39.62%

**Q.** Which “efficiency of Cas9/gRNA pair in creating double strand break (percent of gene modifications)” value (HPRT) does the source give for “HPRT gRNA#3: guide RNA to HPRT; sense oligo SEQ ID 9 CACCGACAAAAAAATTAGCCGGGTG” here?
**A.** <1%

**Q.** For “CCR5 gRNA#2: guide RNA to CCR5; sense oligo SEQ ID 63 CACCGTCATCCTCCTGACAATCGAT”, which “efficiency of Cas9/gRNA pair in creating double strand break (percent of gene modifications)” value (CCR5) is on record?
**A.** >60%

**Q.** How did the “efficiency of Cas9/gRNA pair in creating double strand break (percent of gene modifications)” value (HPRT) turn out when “HPRT gRNA#6: guide RNA to HPRT; sense oligo SEQ ID 15 CACCGGTCTCGAACTCCTGAGCTC” was run?
**A.** <5%

**Q.** Which “efficiency of Cas9/gRNA pair in creating double strand break (percent of gene modifications)” value (AAVS1) does the source give for “AAVS1 gRNA#5: guide RNA to AAVS1; sense oligo SEQ ID 27 CACCGCCGGCCCTGGGAATATAAGG” here?
**A.** 27.55%

**Q.** How did the “efficiency of Cas9/gRNA pair in creating double strand break (percent of gene modifications)” value (PD1) turn out when “PD1 gRNA#4: guide RNA to PD-1; sense oligo SEQ ID 39 CACCGAGGCGGCCAGCTTGTCCGTC” was run?
**A.** 20.87%

**Q.** How did the “efficiency of Cas9/gRNA pair in creating double strand break (percent of gene modifications)” value (CTLA4) turn out when “CTLA4 gRNA#6: guide RNA to CTLA4; sense oligo SEQ ID 57 CACCGCTGGCGATGCCTCGGCTGC” was run?
**A.** 36.93%

**Q.** For “CCR5 gRNA#4: guide RNA to CCR5; sense oligo SEQ ID 67 CACCGACACAGCATGGACGACAGCC”, which “efficiency of Cas9/gRNA pair in creating double strand break (percent of gene modifications)” value (CCR5) is on record?
**A.** 45.99%

**Q.** For “PD1 gRNA#1: guide RNA to PD-1; sense oligo SEQ ID 33 CACCGCGGAGAGCTTCGTGCTAAAC”, which “efficiency of Cas9/gRNA pair in creating double strand break (percent of gene modifications)” value (PD1) is on record?
**A.** 10.83%

**Q.** For “CTLA4 gRNA#3: guide RNA to CTLA4; sense oligo SEQ ID 51 CACCGCTAGATGATTCCATCTGCAC”, which “efficiency of Cas9/gRNA pair in creating double strand break (percent of gene modifications)” value (CTLA4) is on record?
**A.** 39.33%

**Q.** Which “efficiency of Cas9/gRNA pair in creating double strand break (percent of gene modifications)” value (CTLA4) does the source give for “CTLA4 gRNA#5: guide RNA to CTLA4; sense oligo SEQ ID 55 CACCGCCGCACAGACTTCAGTCACC” here?
**A.** 15.90%

**Q.** “PD1 gRNA#6: guide RNA to PD-1; sense oligo SEQ ID 43 CACCGACGGAAGCGGCAGTCCTGGC” was tested. Which “efficiency of Cas9/gRNA pair in creating double strand break (percent of gene modifications)” value (PD1) did it give?
**A.** 25.91%

**Q.** For “CCR5 gRNA#6: guide RNA to CCR5; sense oligo SEQ ID 71 CACCGTTGTATTTCCAAAGTCCCAC”, which “efficiency of Cas9/gRNA pair in creating double strand break (percent of gene modifications)” value (CCR5) is on record?
**A.** 33.17%

**Q.** For “PD1 gRNA#5: guide RNA to PD-1; sense oligo SEQ ID 41 CACCGCGTTGGGCAGTTGTGTGACA”, which “efficiency of Cas9/gRNA pair in creating double strand break (percent of gene modifications)” value (PD1) is on record?
**A.** 30.60%

**Q.** With “CCR5 gRNA#3: guide RNA to CCR5; sense oligo SEQ ID 65 CACCGGTGACAAGTGTGATCACTT” as the substance, how does the “efficiency of Cas9/gRNA pair in creating double strand break (percent of gene modifications)” value (CCR5) read?
**A.** 55.98%

**Q.** Which “efficiency of Cas9/gRNA pair in creating double strand break (percent of gene modifications)” value (CTLA4) does the source give for “CTLA4 gRNA#2: guide RNA to CTLA4; sense oligo SEQ ID 49 CACCGTGCGGCAACCTACATGATG” here?
**A.** 56.10%

**Q.** Which “efficiency of Cas9/gRNA pair in creating double strand break (percent of gene modifications)” value (CTLA4) does the source give for “CTLA4 gRNA#4: guide RNA to CTLA4; sense oligo SEQ ID 53 CACCGAGGTTCACTTGATTTCCAC” here?
**A.** 40.13%

**Q.** For “CTLA4 gRNA#1: guide RNA to CTLA4; sense oligo SEQ ID 47 CACCGCCGGGTGACAGTGCTTCGGC”, which “efficiency of Cas9/gRNA pair in creating double strand break (percent of gene modifications)” value (CTLA4) is on record?
**A.** 40.96%

**Q.** Which “efficiency of Cas9/gRNA pair in creating double strand break (percent of gene modifications)” value (CCR5) does the source give for “CCR5 gRNA#5: guide RNA to CCR5; sense oligo SEQ ID 69 CACCGATCTGGTAAAGATGATTCC” here?
**A.** 36.07%

**Q.** How did the “efficiency of Cas9/gRNA pair in creating double strand break (percent of gene modifications)” value (HPRT) turn out when “HPRT gRNA#4: guide RNA to HPRT; sense oligo SEQ ID 11 CACCGTAAATTTCTCTGATAGACTA” was run?
**A.** <5%

**Q.** How did the “efficiency of Cas9/gRNA pair in creating double strand break (percent of gene modifications)” value (AAVS1) turn out when “AAVS1 gRNA#1: guide RNA to AAVS1; sense oligo SEQ ID 19 CACCGTGGGGGTTAGACCCAATATC” was run?
**A.** 32.99%

**Q.** How did the “efficiency of Cas9/gRNA pair in creating double strand break (percent of gene modifications)” value (HPRT) turn out when “HPRT gRNA#2: guide RNA to HPRT; sense oligo SEQ ID 7 CACCGAAACAACAGGCCGGGCGGGT” was run?
**A.** 30.04% ^
